# Laboratory results from article PMC3694426 (Clinical cancer research : an official journal of the …, 2013).
# Entries after “also recorded” stand apart in the source; their conditions may differ.
# Experiment: phase I dose escalation: DLTs, MTD and treatment-emergent adverse events
# Assay type: in vivo, human
# Conditions: for patients who experienced DLTs: modified DLT criteria
compound,measurement,setting,value
CC1=C2C[C@H]3[C@@H](CC[C@@H]4C[C@H](NS(C)(=O)=O)CC[C@@]43C)[C@@H]2CC[C@@]2(C1)O[C@@H]1C[C@H](C)CN[C@H]1[C@H]2C [IPI-926],DLTs per total patients treated,20 mg QD,0/1
same,DLTs per total patients treated,30 mg QD,0/1
same,DLTs per total patients treated,40 mg QD,0/1
same,DLTs per total patients treated,60 mg QD,0/1
same,DLTs per total patients treated,90 mg QD,0/1
same,"ALT elevation (lab), treatment-emergent adverse event","130 mg (n = 56), Grade 1–2",40 (71) n (%)
same,"AST elevation (lab), treatment-emergent adverse event","130 mg (n = 56), Grade 1–2",41 (73) n (%)
same,"Alopecia, treatment-emergent adverse event","130 mg (n = 56), Grade 1–2",17 (30) n (%)
same,"Decreased appetite, treatment-emergent adverse event","130 mg (n = 56), Grade 1–2",12 (21) n (%)
same,"Diarrhea, treatment-emergent adverse event","130 mg (n = 56), Grade 1–2",15 (27) n (%)
same,"Dysgeusia, treatment-emergent adverse event","130 mg (n = 56), Grade 1–2",6 (11) n (%)
same,"Fatigue, treatment-emergent adverse event","130 mg (n = 56), Grade 1–2",29 (52) n (%)
same,"Muscle spasms, treatment-emergent adverse event","130 mg (n = 56), Grade 1–2",11 (20) n (%)
same,"Nausea, treatment-emergent adverse event","130 mg (n = 56), Grade 1–2",23 (41) n (%)
same,"Thrombocytopenia (lab), treatment-emergent adverse event","130 mg (n = 56), Grade 1–2",12 (21) n (%)
same,"Vomiting, treatment-emergent adverse event","130 mg (n = 56), Grade 1–2",11 (20) n (%)
same,"ALT elevation (lab), treatment-emergent adverse event","130 mg (n = 56), Grade ≥3",4 (7) n (%)
same,"AST elevation (lab), treatment-emergent adverse event","130 mg (n = 56), Grade ≥3",2 (4) n (%)
same,"Alopecia, treatment-emergent adverse event","130 mg (n = 56), Grade ≥3",0 (0) n (%)
same,"Decreased appetite, treatment-emergent adverse event","130 mg (n = 56), Grade ≥3",0 (0) n (%)
same,"Diarrhea, treatment-emergent adverse event","130 mg (n = 56), Grade ≥3",0 (0) n (%)
same,"Dysgeusia, treatment-emergent adverse event","130 mg (n = 56), Grade ≥3",1 (2) n (%)
same,"Fatigue, treatment-emergent adverse event","130 mg (n = 56), Grade ≥3",3 (5) n (%)
same,"Hemoglobin (lab), treatment-emergent adverse event","130 mg (n = 56), Grade ≥3",2 (4) n (%)
same,"Muscle spasms, treatment-emergent adverse event","130 mg (n = 56), Grade ≥3",1 (2) n (%)
same,"Nausea, treatment-emergent adverse event","130 mg (n = 56), Grade ≥3",0 (0) n (%)
same,"Thrombocytopenia (lab), treatment-emergent adverse event","130 mg (n = 56), Grade ≥3",3 (5) n (%)
same,"Vomiting, treatment-emergent adverse event","130 mg (n = 56), Grade ≥3",0 (0) n (%)
same,DLTs per total patients treated,130 mg QD,0/56
same,"ALT elevation (lab), treatment-emergent adverse event","160 mg (n = 18), Grade 1–2",10 (55) n (%)
same,"AST elevation (lab), treatment-emergent adverse event","160 mg (n = 18), Grade 1–2",14 (78) n (%)
same,"Alopecia, treatment-emergent adverse event","160 mg (n = 18), Grade 1–2",4 (22) n (%)
same,"Decreased appetite, treatment-emergent adverse event","160 mg (n = 18), Grade 1–2",5 (28) n (%)
same,"Diarrhea, treatment-emergent adverse event","160 mg (n = 18), Grade 1–2",2 (11) n (%)
same,"Dysgeusia, treatment-emergent adverse event","160 mg (n = 18), Grade 1–2",4 (22) n (%)
same,"Fatigue, treatment-emergent adverse event","160 mg (n = 18), Grade 1–2",8 (44) n (%)
same,"Hemoglobin (lab), treatment-emergent adverse event","160 mg (n = 18), Grade 1–2",12 (66) n (%)
same,"Muscle spasms, treatment-emergent adverse event","160 mg (n = 18), Grade 1–2",6 (33) n (%)
same,"Nausea, treatment-emergent adverse event","160 mg (n = 18), Grade 1–2",6 (33) n (%)
same,"Thrombocytopenia (lab), treatment-emergent adverse event","160 mg (n = 18), Grade 1–2",4 (22) n (%)
same,"Vomiting, treatment-emergent adverse event","160 mg (n = 18), Grade 1–2",6 (33) n (%)
same,"ALT elevation (lab), treatment-emergent adverse event","160 mg (n = 18), Grade ≥3",5 (28) n (%)
same,"AST elevation (lab), treatment-emergent adverse event","160 mg (n = 18), Grade ≥3",2 (11) n (%)
same,"Alopecia, treatment-emergent adverse event","160 mg (n = 18), Grade ≥3",0 (0) n (%)
same,"Decreased appetite, treatment-emergent adverse event","160 mg (n = 18), Grade ≥3",0 (0) n (%)
same,"Diarrhea, treatment-emergent adverse event","160 mg (n = 18), Grade ≥3",1 (6) n (%)
same,"Dysgeusia, treatment-emergent adverse event","160 mg (n = 18), Grade ≥3",1 (6) n (%)
same,"Fatigue, treatment-emergent adverse event","160 mg (n = 18), Grade ≥3",3 (17) n (%)
same,"Hemoglobin (lab), treatment-emergent adverse event","160 mg (n = 18), Grade ≥3",1 (6) n (%)
same,"Muscle spasms, treatment-emergent adverse event","160 mg (n = 18), Grade ≥3",0 (0) n (%)
same,"Nausea, treatment-emergent adverse event","160 mg (n = 18), Grade ≥3",0 (0) n (%)
same,"Thrombocytopenia (lab), treatment-emergent adverse event","160 mg (n = 18), Grade ≥3",0 (0) n (%)
same,"Vomiting, treatment-emergent adverse event","160 mg (n = 18), Grade ≥3",0 (0) n (%)
same,DLT description,160 mg QD,Grade 3 AST and ALT elevation
same,patients with DLT (grade 3 ALT and grade 3 AST elevation),160 mg QD,1 of 6
same,DLTs per total patients treated,160 mg QD (dose selected for phase II),1/18
same,patients with ≥grade 3 ALT elevations,"160 mg QD, the MTD",28%
same,patients with ≥grade 3 AST elevations,"160 mg QD, the MTD",11%
same,DLT description,180 mg QD,Grade 3 fatigue and anorexia; also recorded: Grade 3 AST and ALT elevation
same,DLTs per total patients treated,180 mg QD (intolerable dose level),2/5
same,patients who experienced DLTs,180 mg QD,2 patients
same,DLT description,200 mg QD,Grade 3 AST elevation; also recorded: Grade 3 ALT elevation
same,patients with adverse events that met DLT criteria,200 mg QD,2 patients
same,DLTs per total patients treated,200 mg QD (intolerable dose level),2/3
same,DLT description,210 mg QD,Grade 3 AST and ALT elevation; also recorded: Grade 2 ALT elevation and hyperbilirubinemia
same,DLTs per total patients treated,210 mg QD (intolerable dose level),2/7
same,patients who experienced DLTs,210 mg QD,2 patients
same,patients discontinued from the study due to toxicity,6 of 94 patients,6%
